Assays:
Assay type in all cases: cell-based
OVCAR-8 = assay: In vitro cytotoxicity, NCI screen: OVCAR-8 (Ovarian); conditions: Homo sapiens; OVCAR-8, Ovarian panel, NCI protocol; read-out: GI50 values (μM conc.)
Procedure: (§1) The in vitro anticancer activity studies for these amidobenzothiazoles were carried out at the National Cancer Institute, Maryland, USA.
(§2) The amidobenzothiazoles have been tested against sixty human tumor cell lines derived from nine cancer types (leukemia cancer cell line, non-small cell lung cancer cell line, colon cancer cell line, CNS cancer cell line, melanoma cancer cell line, ovarian cancer cell line, renal cancer cell line, prostate cancer cell line and breast cancer cell lines). For these compounds results are expressed in GI50 values of that particular cancer cell at micro molar (μM) concentration as per NCI protocol.

U251 = assay: In vitro cytotoxicity, NCI screen: U251 (CNS); conditions: Homo sapiens, U-251; U251, CNS panel, NCI protocol; read-out: GI50 values (μM conc.)
Procedure: as §1, §2

ACHN = assay: In vitro cytotoxicity, NCI screen: ACHN (Renal); conditions: Homo sapiens, Renal panel, NCI protocol, read-out: GI50 values (μM conc.)
Procedure: as §1, §2

IGROV1 = assay: In vitro cytotoxicity, NCI screen: IGROV1 (Ovarian); conditions: Homo sapiens, IGROV-1; IGROV1, Ovarian panel, NCI protocol; read-out: GI50 values (μM conc.)
Procedure: as §1, §2

HCC-2998 = assay: In vitro cytotoxicity, NCI screen: HCC-2998 (Colon); conditions: Homo sapiens; HCC-2998, Colon panel, NCI protocol; read-out: GI50 values (μM conc.)
Procedure: as §1, §2

SF-295 = assay: In vitro cytotoxicity, NCI screen: SF-295 (CNS); conditions: Homo sapiens; SF-295, CNS panel, NCI protocol; read-out: GI50 values (μM conc.)
Procedure: as §1, §2

SR = assay: In vitro cytotoxicity, NCI screen: SR (Leukemia); conditions: Homo sapiens, Leukemia panel, NCI protocol, read-out: GI50 values (μM conc.)
Procedure: as §1, §2

CCRF-CEM = assay: In vitro cytotoxicity, NCI sixty cell line screen: CCRF-CEM (Leukemia); conditions: Homo sapiens, Leukemia panel, NCI protocol, read-out: GI50 values (μM conc.)
Procedure: as §1, §2

NCI-H522 = assay: In vitro cytotoxicity, NCI screen: NCI-H522 (Non-small cell lung); conditions: Homo sapiens; NCI-H522, Non-small cell lung panel, NCI protocol; read-out: GI50 values (μM conc.)
Procedure: as §1, §2

OVCAR-4 = assay: In vitro cytotoxicity, NCI screen: OVCAR-4 (Ovarian); conditions: Homo sapiens; OVCAR-4, Ovarian panel, NCI protocol; read-out: GI50 values (μM conc.)
Procedure: as §1, §2

MDA-MB-231/ATCC = assay: In vitro cytotoxicity, NCI screen: MDA-MB-231/ATCC (Breast); conditions: Homo sapiens, Breast panel, NCI protocol, read-out: GI50 values (μM conc.)
Procedure: as §1, §2

KM12 = assay: In vitro cytotoxicity, NCI screen: KM12 (Colon); conditions: Homo sapiens; KM12, Colon panel, NCI protocol; read-out: GI50 values (μM conc.)
Procedure: as §1, §2

HCT-15 = assay: In vitro cytotoxicity, NCI screen: HCT-15 (Colon); conditions: Homo sapiens; HCT-15, Colon panel, NCI protocol; read-out: GI50 values (μM conc.)
Procedure: as §1, §2

COLO-205 = assay: In vitro cytotoxicity, NCI screen: COLO-205 (Colon); conditions: Homo sapiens; COLO-205, Colon panel, NCI protocol; read-out: GI50 values (μM conc.)
Procedure: as §1, §2

SN12C = assay: In vitro cytotoxicity, NCI screen: SN12C (Renal); conditions: Homo sapiens, Renal panel, NCI protocol, read-out: GI50 values (μM conc.)
Procedure: as §1, §2

UACC-257 = assay: In vitro cytotoxicity, NCI screen: UACC-257 (Melanoma); conditions: Homo sapiens; UACC-257, Melanoma panel, NCI protocol; read-out: GI50 values (μM conc.)
Procedure: as §1, §2

SK-MEL-5 = assay: In vitro cytotoxicity, NCI screen: SK-MEL-5 (Melanoma); conditions: Homo sapiens; SK-MEL-5, Melanoma panel, NCI protocol; read-out: GI50 values (μM conc.)
Procedure: as §1, §2

OVCAR-3 = assay: In vitro cytotoxicity, NCI screen: OVCAR-3 (Ovarian); conditions: Homo sapiens; OVCAR-3, Ovarian panel, NCI protocol; read-out: GI50 values (μM conc.)
Procedure: as §1, §2

PC-3 = assay: In vitro cytotoxicity, NCI screen: PC-3 (Prostate); conditions: Homo sapiens; PC-3, Prostate panel, NCI protocol; read-out: GI50 values (μM conc.)
Procedure: as §1, §2

MDA-MB-468 = assay: In vitro cytotoxicity, NCI screen: MDA-MB-468 (Breast); conditions: Homo sapiens, read-out: GI50 values (μM conc.)
Procedure: as §1, §2

SF-539 = assay: In vitro cytotoxicity, NCI screen: SF-539 (CNS); conditions: Homo sapiens, read-out: GI50 values (μM conc.)
Procedure: as §1, §2

M14 = assay: In vitro cytotoxicity, NCI screen: M14 (Melanoma); conditions: Homo sapiens; M14, Melanoma panel, NCI protocol; read-out: GI50 values (μM conc.)
Procedure: as §1, §2

NCI-H23 = assay: In vitro cytotoxicity, NCI screen: NCI-H23 (Non-small cell lung); conditions: Homo sapiens; NCI-H23, Non-small cell lung panel, NCI protocol; read-out: GI50 values (μM conc.)
Procedure: as §1, §2

A549/ATCC = assay: In vitro cytotoxicity, NCI screen: A549/ATCC (Non-small cell lung); conditions: Homo sapiens, Non-small cell lung panel, NCI protocol, read-out: GI50 values (μM conc.)
Procedure: as §1, §2

A498 = assay: In vitro cytotoxicity, NCI screen: A498 (Renal); conditions: Homo sapiens; A498, Renal panel, NCI protocol; read-out: GI50 values (μM conc.)
Procedure: as §1, §2

T-47D = assay: In vitro cytotoxicity, NCI screen: T-47D (Breast); conditions: Homo sapiens, T47D, Breast panel, NCI protocol, read-out: GI50 values (μM conc.)
Procedure: as §1, §2

HCT-116 = assay: In vitro cytotoxicity, NCI screen: HCT-116 (Colon); conditions: Homo sapiens, read-out: GI50 values (μM conc.)
Procedure: as §1, §2

NCI-H322M = assay: In vitro cytotoxicity, NCI screen: NCI-H322M (Non-small cell lung); conditions: Homo sapiens, Non-small cell lung panel, NCI protocol, read-out: GI50 values (μM conc.)
Procedure: as §1, §2

SNB-19 = assay: In vitro cytotoxicity, NCI screen: SNB-19 (CNS); conditions: Homo sapiens; SNB-19, CNS panel, NCI protocol; read-out: GI50 values (μM conc.)
Procedure: as §1, §2

SK-MEL-28 = assay: In vitro cytotoxicity, NCI screen: SK-MEL-28 (Melanoma); conditions: Homo sapiens; SK-MEL-28, Melanoma panel, NCI protocol; read-out: GI50 values (μM conc.)
Procedure: as §1, §2

TK-10 = assay: In vitro cytotoxicity, NCI screen: TK-10 (Renal); conditions: Homo sapiens; TK-10, Renal panel, NCI protocol; read-out: GI50 values (μM conc.)
Procedure: as §1, §2

OVCAR-5 = assay: In vitro cytotoxicity, NCI screen: OVCAR-5 (Ovarian); conditions: Homo sapiens; OVCAR-5, Ovarian panel, NCI protocol; read-out: GI50 values (μM conc.)
Procedure: as §1, §2

Structure (SMILES) | GI50 (OVCAR-8) [µM] | GI50 (U251) [µM] | GI50 (ACHN) [µM] | GI50 (IGROV1) [µM] | GI50 (HCC-2998) [µM] | GI50 (SF-295) [µM] | GI50 (NCI-H522) [µM] | GI50 (OVCAR-4) [µM] | GI50 (MDA-MB-231/ATCC) [µM] | GI50 (HCT-15) [µM] | GI50 (COLO-205) [µM] | GI50 (SN12C) [µM] | GI50 (UACC-257) [µM] | GI50 (OVCAR-3) [µM] | GI50 (PC-3) [µM] | GI50 (MDA-MB-468) [µM] | GI50 (SF-539) [µM] | GI50 (NCI-H23) [µM] | GI50 (A549/ATCC) [µM] | GI50 (A498) [µM] | also measured
COc1ccc(/C=C\c2cc(OC)c(OC)c(OC)c2)cc1OCC(=O)Nc1nc2ccccc2s1 [Compound 8a, N1-(1,3-benzothiazol-2-yl)-2-{2-methoxy-5-[(Z)-2-(3,4,5-trimethoxyphenyl)-1-ethenyl]phenoxy}acetamide] | 0.25 | 0.048 | 0.093 | 0.21 | 0.37 | 0.22 | 0.079 | 0.37 | 0.19 | 0.048 | 2.83 | 0.37 | 11 | 0.043 | 0.18 | 0.1 | 0.045 | 0.11 | 0.34 | 0.36 | GI50 (SR): 0.037 µM; GI50 (CCRF-CEM): 0.078 µM; GI50 (KM12): 0.058 µM; GI50 (SK-MEL-5): 0.036 µM; GI50 (M14): 0.072 µM; GI50 (T-47D): 1 µM; GI50 (HCT-116): 0.046 µM
COc1ccc(/C=C\c2cc(OC)c(OC)c(OC)c2)cc1OCC(=O)Nc1nc2ccc(F)cc2s1 [Compound 8e, N1-(6-fluoro-1,3-benzothiazol-2-yl)-2-{2-methoxy-5-[(Z)-2-(3,4,5-trimethoxyphenyl)-1-ethenyl]phenoxy}acetamide] | 7.15 | 4.33 | 3.33 | 4.17 | > 100 | 4.29 | 2.92 | 7.3 | 9.34 | 8.19 | 7.78 | 4.61 | 8.69 | 9.99 | 6.74 | 3.68 | 4.51 | 4.26 | 5.99 | 6.25 | GI50 (NCI-H322M): > 100 µM; GI50 (SR): 2.19 µM; GI50 (SNB-19): > 100 µM; GI50 (CCRF-CEM): 3.7 µM; GI50 (KM12): 4.78 µM; GI50 (SK-MEL-28): > 100 µM; GI50 (SK-MEL-5): 1.76 µM; GI50 (TK-10): 9.89 µM; GI50 (OVCAR-5): > 100 µM; GI50 (M14): 6.82 µM; GI50 (T-47D): 3.39 µM; GI50 (HCT-116): 4.48 µM
COc1ccc2nc(NC(=O)COc3cc(/C=C\c4cc(OC)c(OC)c(OC)c4)ccc3OC)sc2c1 [Compound 8g, N1-(6-methoxy-1,3-benzothiazol-2-yl)-2-{2-methoxy-5-[(Z)-2-(3,4,5-trimethoxyphenyl)-1-ethenyl]phenoxy}acetamide] | 5.28 | 4 | 7.77 | 7 | 7.34 | 1.84 | 3.09 | 5.31 | 5.4 | 2.89 | 3.89 | 5.75 | 63 | 2.17 | 4.45 | 2.29 | 2.84 | 3.91 | 5.19 | 3.5 | GI50 (NCI-H322M): > 100 µM; GI50 (SR): 3.69 µM; GI50 (SNB-19): 6.3 µM; GI50 (CCRF-CEM): 3.87 µM; GI50 (KM12): 3.12 µM; GI50 (SK-MEL-28): 4.41 µM; GI50 (SK-MEL-5): 2.68 µM; GI50 (TK-10): 7.54 µM; GI50 (OVCAR-5): 5.89 µM; GI50 (M14): 4.33 µM; GI50 (T-47D): 4.03 µM; GI50 (HCT-116): 3.7 µM
COc1ccc(/C=C\c2cc(OC)c(OC)c(OC)c2)cc1OCC(=O)Nc1nc2ccc(C(F)(F)F)cc2s1 [Compound 8i, N1-(6-(trifluoromethyl)-1,3-benzothiazol-2-yl)-2-{2-methoxy-5-[(Z)-2-(3,4,5-trimethoxyphenyl)-1-ethenyl]phenoxy}acetamide] | 3.86 | 3.67 | 4.82 | 4.48 | 4.23 | 3.36 | 2.89 | 4.66 | 3.38 | 3.24 | 17.1 | 4.43 | 40 | 2.11 | 4.32 | 2.16 | 2.66 | 3.9 | 4.46 | 2.81 | GI50 (NCI-H322M): 5.38 µM; GI50 (SR): 3.35 µM; GI50 (SNB-19): 5.03 µM; GI50 (CCRF-CEM): 4.27 µM; GI50 (KM12): 3.14 µM; GI50 (SK-MEL-28): 3 µM; GI50 (SK-MEL-5): 2.84 µM; GI50 (TK-10): 7.03 µM; GI50 (OVCAR-5): 5.98 µM; GI50 (M14): 3.58 µM; GI50 (T-47D): 4.79 µM; GI50 (HCT-116): 3.29 µM
COc1ccc(C2CC(c3cc(OC)c(OC)c(OC)c3)=NN2C(C)=O)cc1OCC(=O)Nc1nc2ccc(C(F)(F)F)cc2s1 (stereo not drawn) [Compound 10i, N1-(6-(trifluoromethyl)-1,3-benzothiazol-2-yl)-2-{5-[1-acetyl-3-(3,4,5-trimethoxyphenyl)-4,5-dihydro-1H-5-pyrazolyl]-2-methoxyphenoxy}acetamide] | 3.36 | 3.08 | 2.48 | 5.3 | > 100 | 3.06 | 2.71 | 2.9 | 3.11 | 9.26 | 3.94 | 3.31 | 3.77 | 1.84 | 2.92 | 6.12 | 1.75 | 3.76 | 2.16 | 2.78 | GI50 (NCI-H322M): 3.67 µM; GI50 (SNB-19): 11 µM; GI50 (SK-MEL-28): 3.56 µM; GI50 (TK-10): 2.85 µM; GI50 (OVCAR-5): 28.2 µM; GI50 (T-47D): 2.75 µM; GI50 (HCT-116): 2.39 µM

From patent publication US9102638B2, “Amidobenzothiazoles and process for the preparation thereof” (COUNCIL OF SCIENTIFIC & INDUSTRIAL RESEARCH, priority 2011, dated 2015)
